Blank lines part the entries; values can stand above or below the molecule they belong to.
What was measured:
CD73 [1] = molecular target: T1, CD73 (Homo sapiens (Human), UniProt P21589); assay: MDA-MB-231 Cell Based CD73 Activity Assay (DMEM); conditions: MDA-MB-231-GFP cells, DMEM medium with 10% human plasma, 200 uM AMP
Method: MDA-MB-231 Cell Based CD73 Activity Assay (DMEM) MDA-MB-231-GFP cells were seeded in 384-well plates (Greiner 781946) at a density of 3000 cells per well in 50 μL of DMEM medium with 10% HP (human plasma). Cells were plated into assay plate with compounds pre-spotted, for an overnight compound treatment. 50 uL of 400 uM AMP (final concentration will be 200 uM) was added using Bio-tek dispenser. Plates were incubated for 100 mins. […] The samples were analyzed using Rapid fire.

CD73 [2] = molecular target: T1, CD73; format: biochemical; conditions: 1 mM NaH2PO4 in enzyme buffer, CD73 0.3 nM, AMP 15 uM

T1 sequence (P21589 27-574): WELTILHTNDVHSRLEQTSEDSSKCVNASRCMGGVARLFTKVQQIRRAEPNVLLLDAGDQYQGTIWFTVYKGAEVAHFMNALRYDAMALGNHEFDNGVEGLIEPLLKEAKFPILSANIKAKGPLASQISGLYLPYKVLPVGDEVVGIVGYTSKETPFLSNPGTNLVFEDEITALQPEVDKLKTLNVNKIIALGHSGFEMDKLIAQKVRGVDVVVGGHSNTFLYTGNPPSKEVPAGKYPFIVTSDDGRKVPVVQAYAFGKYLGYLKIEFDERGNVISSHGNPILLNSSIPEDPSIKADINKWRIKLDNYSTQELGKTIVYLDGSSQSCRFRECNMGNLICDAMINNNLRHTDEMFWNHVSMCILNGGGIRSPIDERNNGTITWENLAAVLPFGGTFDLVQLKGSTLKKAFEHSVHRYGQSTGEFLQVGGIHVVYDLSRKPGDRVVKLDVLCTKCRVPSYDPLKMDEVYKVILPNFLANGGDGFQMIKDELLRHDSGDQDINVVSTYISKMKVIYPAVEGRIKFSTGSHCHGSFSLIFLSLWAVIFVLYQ

- EC50 (CD73 [1]): 0.64 nM
- IC50 (CD73 [2]): 0.95 nM
SMILES: O=c1[nH]cc(-c2cc([C@H]3C[C@@H]3c3ccc4cnc(C(F)(F)F)cc4c3)c3nccn3n2)c(=O)[nH]1 (racemic) [Example 138, 5-(8-((1S,2S)-2-(3-(trifluoromethyl)isoquinolin-6-yl)cyclopropyl)imidazo[1,2-b]pyridazin-6-yl)pyrimidine-2,4(1H,3H)-dione and 5-(8-((1R,2R)-2-(3-(trifluoromethyl)isoquinolin-6-yl)cyclopropyl)imidazo[1,2-b]pyridazin-6-yl)pyrimidine-2,4(1H,3H)-dione]

- EC50 (CD73 [1]): 24.8 nM
- IC50 (CD73 [2]): 2.1 nM
SMILES: O=c1[nH]cc(-c2cc([C@H]3C[C@@H]3c3cc(C(F)(F)F)c4ncccc4c3)c3nccn3n2)c(=O)[nH]1 (racemic) [Example 141, 5-(8-((1S,2S)-2-(8-(trifluoromethyl)quinolin-6-yl)cyclopropyl)imidazo[1,2-b]pyridazin-6-yl)pyrimidine-2,4(1H,3H)-dione and 5-(8-((1R,2R)-2-(8-(trifluoromethyl)quinolin-6-yl)cyclopropyl)imidazo[1,2-b]pyridazin-6-yl)pyrimidine-2,4(1H,3H)-dione]

- EC50 (CD73 [1]): 3.76 nM
- IC50 (CD73 [2]): 0.96 nM
SMILES: O=c1[nH]cc(-c2cc([C@H]3C[C@@H]3c3ccc4nc(C(F)(F)F)ccc4c3)c3nccn3n2)c(=O)[nH]1 (racemic) [Example 142, 5-(8-((1S,2S)-2-(2-(trifluoromethyl)quinolin-6-yl)cyclopropyl)imidazo[1,2-b]pyridazin-6-yl)pyrimidine-2,4(1H,3H)-dione and 5-(8-((1R,2R)-2-(2-(trifluoromethyl)quinolin-6-yl)cyclopropyl)imidazo[1,2-b]pyridazin-6-yl)pyrimidine-2,4(1H,3H)-dione]

- EC50 (CD73 [1]): 7.61 nM
- IC50 (CD73 [2]): 3.34 nM
SMILES: O=c1[nH]cc(-c2cc([C@H]3C[C@@H]3c3ccc(C(F)(F)F)cn3)c3nccn3n2)c(=O)[nH]1 (racemic) [Example 149, 5-(8-((1S,2S)-2-(5-(trifluoromethyl)pyridin-2-yl)cyclopropyl)imidazo[1,2-b]pyridazin-6-yl)pyrimidine-2,4(1H,3H)-dione and 5-(8-((1R,2R)-2-(5-(trifluoromethyl)pyridin-2-yl)cyclopropyl)imidazo[1,2-b]pyridazin-6-yl)pyrimidine-2,4(1H,3H)-dione]

- EC50 (CD73 [1]): 17.5 nM
- IC50 (CD73 [2]): 3.45 nM
SMILES: O=c1[nH]cc(-c2cc([C@H]3C[C@@H]3c3ccc(C(F)(F)F)nc3)c3nccn3n2)c(=O)[nH]1 (racemic) [Example 152, 5-(8-((1S,2S)-2-(6-(trifluoromethyl)pyridin-3-yl)cyclopropyl)imidazo[1,2-b]pyridazin-6-yl)pyrimidine-2,4(1H,3H)-dione and 5-(8-((1R,2R)-2-(6-(trifluoromethyl)pyridin-3-yl)cyclopropyl)imidazo[1,2-b]pyridazin-6-yl)pyrimidine-2,4(1H,3H)-dione]

- EC50 (CD73 [1]): 50 nM
- IC50 (CD73 [2]): 1.79 nM
SMILES: O=c1[nH]cc(-c2cc([C@H]3C[C@@H]3c3ccc4onc(C(F)(F)F)c4c3)c3nccn3n2)c(=O)[nH]1 (racemic) [Example 327, 5-(8-((1S,2S)-2-(3-(trifluoromethyl)benzo[d]isoxazol-5-yl)cyclopropyl)imidazo[1,2-b]pyridazin-6-yl)pyrimidine-2,4(1H,3H)-dione]

- EC50 (CD73 [1]): 49.3 nM
- IC50 (CD73 [2]): 1.83 nM
SMILES: O=c1[nH]cc(-c2cc([C@H]3C[C@@H]3c3ccc4cnn(-c5ccc(C(F)(F)F)cn5)c4c3)c3nccn3n2)c(=O)[nH]1 (racemic) [Example 383, 5-(8-((1S,2S)-2-(1-(5-(trifluoromethyl)pyridin-2-yl)-1H-indazol-6-yl)cyclopropyl)imidazo[1,2-b]pyridazin-6-yl)pyrimidine-2,4(1H,3H)-dione]

Second part, the molecule before the results:

SMILES: O=c1[nH]cc(-c2cc([C@H]3C[C@@H]3c3ccc(OC(F)F)cn3)c3nccn3n2)c(=O)[nH]1 (racemic) [Example 136, 5-(8-((1S,2S)-2-(5-(difluoromethoxy)pyridin-2-yl)cyclopropyl)imidazo[1,2-b]pyridazin-6-yl)pyrimidine-2,4(1H,3H)-dione and 5-(8-((1R,2R)-2-(5-(difluoromethoxy)pyridin-2-yl)cyclopropyl)imidazo[1,2-b]pyridazin-6-yl)pyrimidine-2,4(1H,3H)-dione]
- EC50 (CD73 [1]): 6.37 nM
- IC50 (CD73 [2]): 3.11 nM

SMILES: O=C(c1cn2nc(-c3c[nH]c(=O)[nH]c3=O)cc([C@H]3C[C@@H]3c3ccc(F)cc3)c2n1)N1CC(F)(F)C1 (racemic) [Example 198, 5-[2-(3,3-difluoroazetidine-1-carbonyl)-8-[(1S,2S)-2-(4-fluorophenyl)cyclopropyl]imidazo[1,2-b]pyridazin-6-yl]-1H-pyrimidine-2,4-dione]
- EC50 (CD73 [1]): 191 nM
- IC50 (CD73 [2]): 85.2 nM

SMILES: O=C(c1cn2nc(-c3c[nH]c(=O)[nH]c3=O)cc([C@H]3C[C@@H]3c3ccc(F)cc3)c2n1)N1CCC(F)(F)C1 (racemic) [Example 199, 5-[2-(3,3-difluoropyrrolidine-1-carbonyl)-8-[(1S,2S)-2-(4-fluorophenyl)cyclopropyl]imidazo[1,2-b]pyridazin-6-yl]-1H-pyrimidine-2,4-dione]
- EC50 (CD73 [1]): 755 nM
- IC50 (CD73 [2]): > 250 nM

SMILES: N#Cc1ccc([C@H]2C[C@@H]2c2cc(-c3c[nH]c(=O)[nH]c3=O)nn3c(F)cnc23)cn1 (racemic) [Example 375, 5-((1S,2S)-2-(6-(2,4-dioxo-1,2,3,4-tetrahydropyrimidin-5-yl)-3-fluoroimidazo[1,2-b]pyridazin-8-yl)cyclopropyl)picolinonitrile]
- EC50 (CD73 [1]): 11.2 nM
- IC50 (CD73 [2]): 2.83 nM

SMILES: O=C1N(CC(F)(F)F)c2cc([C@H]3C[C@@H]3c3cc(-c4c[nH]c(=O)[nH]c4=O)nn4ccnc34)ccc2C12CC2 (racemic) [Example 382, 5-(8-((1S,2S)-2-(2′-oxo-1′-(2,2,2-trifluoroethyl)spiro[cyclopropane-1,3′-indolin]-6′-yl)cyclopropyl)imidazo[1,2-b]pyridazin-6-yl)pyrimidine-2,4(1H,3H)-dione]
- EC50 (CD73 [1]): 0.13 nM
- IC50 (CD73 [2]): 1.63 nM

SMILES: CC(C)c1nn(CC(F)(F)F)c2cc([C@H]3C[C@@H]3c3cc(-c4c[nH]c(=O)[nH]c4=O)nn4ccnc34)ccc12 (racemic) [Example 396, 5-(8-((1S,2S)-2-(3-isopropyl-1-(2,2,2-trifluoroethyl)-1H-indazol-6-yl)cyclopropyl)imidazo[1,2-b]pyridazin-6-yl)pyrimidine-2,4(1H,3H)-dione]
- EC50 (CD73 [1]): 0.24 nM
- IC50 (CD73 [2]): 2 nM

SMILES: O=c1[nH]cc(-c2cc([C@@H]3[C@@H](c4ccc(F)c(F)c4)C3(F)F)c3nccn3n2)c(=O)[nH]1 (racemic) [Example 552, 5-(8-((1S,3S)-3-(3,4-difluorophenyl)-2,2-difluorocyclopropyl)imidazo[1,2-b]pyridazin-6-yl)pyrimidine-2,4(1H,3H)-dione]
- EC50 (CD73 [1]): 15.2 nM
- IC50 (CD73 [2]): 2.76 nM

SMILES: O=c1[nH]cc(-c2cc([C@H]3C[C@@H]3c3ccccc3Cl)c3nccn3n2)c(=O)[nH]1 (racemic) [Example 555, 5-(8-((1S,2S)-2-(2-chlorophenyl)cyclopropyl)imidazo[1,2-b]pyridazin-6-yl)pyrimidine-2,4(1H,3H)-dione]
- EC50 (CD73 [1]): 267 nM
- IC50 (CD73 [2]): 13.3 nM

SMILES: O=c1[nH]cc(-c2cc([C@H]3C[C@@H]3c3ccc(OC(F)F)cc3)c3nccn3n2)c(=O)[nH]1 (racemic) [Example 556, 5-(8-((1S,2S)-2-(4-(difluoromethoxy)phenyl)cyclopropyl)imidazo[1,2-b]pyridazin-6-yl)pyrimidine-2,4(1H,3H)-dione]
- EC50 (CD73 [1]): 14 nM
- IC50 (CD73 [2]): 3.41 nM

Reference: patent US20240043427A1 (Gilead Sciences, Inc., priority 2020, published 2024)
